Assays:
Assay type in all cases: functional
Mus musculus [1] = assay: In vivo photosensitizing activity against subcutaneously implanted SMT-F tumor in DBA/2 mice at the dose of 4.2mg/Kg, day 1-2
Mus musculus [2] = assay: In vivo photosensitizing activity against subcutaneously implanted SMT-F tumor in DBA/2 mice at the dose of 2.1mg/Kg, day 1-2
Mus musculus [3] = assay: In vivo photosensitizing activity against subcutaneously implanted SMT-F tumor in DBA/2 mice at the dose of 2.1mg/Kg, day 7

| Compound | Tumor response (Mus musculus [1]) | Tumor response (Mus musculus [2]) | Tumor response (Mus musculus [3]) |
| --- | --- | --- | --- |
| CNc1cc2[nH]c(cc3nc(cc4nc(ccc(CCC(=O)OC)c1C)C(CCC(=O)OC)=C4C)C(C)=C3C(C)O)c(C)c2C(C)OC(=O)CCC1=C(C)c2cc(C)c(C(C)O)c(C)c(N)cc3nc(cc4[nH]c(cc1n2)c(CCC(=O)OC)c4C)C(C)=C3C(C)O (centres undefined) | 0% | – | – |
| C=CC1=C(C)c2cc3nc(ccc(CCC(=O)OC)c(C)c(NC)cc4[nH]c(cc1n2)c(C)c4C(C)OC(C)c1c(C)cc2[nH]c(cc4nc(cc5nc(cc(N)c1C)C(C(C)O)=C5C)C(C)=C4CCC(=O)OC)c(CCC(=O)OC)c2C)C(CCC(=O)OC)=C3C (centres undefined) | – | 100% | 100% |
| CNc1cc2[nH]c(cc3nc(cc4nc(ccc(CCC(=O)OC)c1C)C(CCC(=O)OC)=C4C)C(C)=C3C(C)O)c(C)c2C(C)OC(C)c1c(C)cc2[nH]c(cc3nc(cc4nc(cc(N)c1C)C(C(C)O)=C4C)C(C)=C3CCC(=O)OC)c(CCC(=O)OC)c2C (centres undefined) | 0% | – | – |

— ChEMBL document CHEMBL1124854, “Porphyrin dimers as photosensitizers in photodynamic therapy” (1990)
